The record followed here is ChEMBL document CHEMBL1201862, “PubChem BioAssay data set” (2004).

The source made the active and inactive calls. Bounds are passed on as bounds.

What all share (type): functional
The target in assay [1] is T1, Hexokinase HKDC1 (Homo sapiens, UniProt Q2TB90).
T1 sequence (Q2TB90 whole entry): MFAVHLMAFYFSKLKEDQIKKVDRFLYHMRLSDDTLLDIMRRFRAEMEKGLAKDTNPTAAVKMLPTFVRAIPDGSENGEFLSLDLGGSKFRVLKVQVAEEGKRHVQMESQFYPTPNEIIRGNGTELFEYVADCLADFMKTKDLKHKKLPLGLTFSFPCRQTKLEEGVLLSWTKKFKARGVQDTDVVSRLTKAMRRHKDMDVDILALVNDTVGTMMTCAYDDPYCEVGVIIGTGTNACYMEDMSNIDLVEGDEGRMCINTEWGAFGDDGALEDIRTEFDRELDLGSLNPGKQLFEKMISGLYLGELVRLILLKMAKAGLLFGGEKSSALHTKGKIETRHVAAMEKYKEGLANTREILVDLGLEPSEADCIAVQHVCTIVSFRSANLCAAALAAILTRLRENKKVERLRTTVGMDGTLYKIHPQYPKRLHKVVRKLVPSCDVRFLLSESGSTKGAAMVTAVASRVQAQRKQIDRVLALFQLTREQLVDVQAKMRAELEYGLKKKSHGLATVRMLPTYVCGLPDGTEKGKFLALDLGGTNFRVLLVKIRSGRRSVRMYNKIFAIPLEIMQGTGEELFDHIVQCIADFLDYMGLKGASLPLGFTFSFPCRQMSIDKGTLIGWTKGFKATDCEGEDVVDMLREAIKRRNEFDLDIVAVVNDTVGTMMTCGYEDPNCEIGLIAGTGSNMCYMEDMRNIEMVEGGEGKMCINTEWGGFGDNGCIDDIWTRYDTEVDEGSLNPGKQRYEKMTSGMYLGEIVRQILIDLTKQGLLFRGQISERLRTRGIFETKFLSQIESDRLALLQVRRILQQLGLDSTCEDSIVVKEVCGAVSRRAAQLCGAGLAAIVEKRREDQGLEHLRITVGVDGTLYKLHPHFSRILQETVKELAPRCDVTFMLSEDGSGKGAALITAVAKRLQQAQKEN
The assay can be described thus: activation of HKDC1 glucose phosphorylation – biochemical, W721R variant, dose response (AID 504730).

Assay [2] concerns the target Peroxisome proliferator-activated receptor gamma/Nuclear receptor coactivator 2 (Homo sapiens, UniProt P37231).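 Note: agonist potency for raising coactivator recruitment to the receptor.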
For assay [3], the target named is T2, Sentrin-specific protease 6 (Homo sapiens, UniProt Q9GZR1).
T2 sequence (Q9GZR1 whole entry): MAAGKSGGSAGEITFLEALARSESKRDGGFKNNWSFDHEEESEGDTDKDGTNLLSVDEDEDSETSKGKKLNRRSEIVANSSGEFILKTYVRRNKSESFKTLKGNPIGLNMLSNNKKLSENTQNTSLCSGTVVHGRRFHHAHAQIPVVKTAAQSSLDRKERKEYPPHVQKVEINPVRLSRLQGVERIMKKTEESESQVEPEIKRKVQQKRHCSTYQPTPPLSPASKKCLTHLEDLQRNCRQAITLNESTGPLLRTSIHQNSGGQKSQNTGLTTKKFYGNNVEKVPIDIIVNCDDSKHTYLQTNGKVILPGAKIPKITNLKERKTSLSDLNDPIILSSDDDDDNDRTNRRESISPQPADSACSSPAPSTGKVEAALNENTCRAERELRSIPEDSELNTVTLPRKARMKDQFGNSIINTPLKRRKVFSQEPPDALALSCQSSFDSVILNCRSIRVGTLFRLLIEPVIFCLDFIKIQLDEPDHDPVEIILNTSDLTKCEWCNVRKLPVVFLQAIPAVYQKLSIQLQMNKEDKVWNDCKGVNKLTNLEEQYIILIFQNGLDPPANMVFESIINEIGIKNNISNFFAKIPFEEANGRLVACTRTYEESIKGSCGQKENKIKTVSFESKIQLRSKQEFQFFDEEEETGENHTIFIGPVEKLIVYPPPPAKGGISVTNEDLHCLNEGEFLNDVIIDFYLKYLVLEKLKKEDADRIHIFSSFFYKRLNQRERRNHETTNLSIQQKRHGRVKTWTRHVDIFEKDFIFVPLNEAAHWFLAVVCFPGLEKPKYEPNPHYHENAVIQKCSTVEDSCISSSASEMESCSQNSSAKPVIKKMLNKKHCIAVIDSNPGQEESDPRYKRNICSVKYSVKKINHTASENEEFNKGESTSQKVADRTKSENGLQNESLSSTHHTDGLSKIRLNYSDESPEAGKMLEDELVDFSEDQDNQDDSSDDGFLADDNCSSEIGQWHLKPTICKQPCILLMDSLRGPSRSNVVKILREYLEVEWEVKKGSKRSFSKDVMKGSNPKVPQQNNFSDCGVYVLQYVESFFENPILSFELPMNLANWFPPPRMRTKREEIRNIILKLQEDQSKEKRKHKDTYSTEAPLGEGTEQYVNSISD
Kind of assay: SAR Analysis of small molecule inhibitors of Sentrin-specific protease 6 (SENP6) using a Luminescent assay. [Related pubchem assays (depositor defined):AID2582, AID2599].

For assay [4], the target named is T3, Oxysterols receptor LXR-beta (Homo sapiens, UniProt P55055).
T3 sequence (P55055 whole entry): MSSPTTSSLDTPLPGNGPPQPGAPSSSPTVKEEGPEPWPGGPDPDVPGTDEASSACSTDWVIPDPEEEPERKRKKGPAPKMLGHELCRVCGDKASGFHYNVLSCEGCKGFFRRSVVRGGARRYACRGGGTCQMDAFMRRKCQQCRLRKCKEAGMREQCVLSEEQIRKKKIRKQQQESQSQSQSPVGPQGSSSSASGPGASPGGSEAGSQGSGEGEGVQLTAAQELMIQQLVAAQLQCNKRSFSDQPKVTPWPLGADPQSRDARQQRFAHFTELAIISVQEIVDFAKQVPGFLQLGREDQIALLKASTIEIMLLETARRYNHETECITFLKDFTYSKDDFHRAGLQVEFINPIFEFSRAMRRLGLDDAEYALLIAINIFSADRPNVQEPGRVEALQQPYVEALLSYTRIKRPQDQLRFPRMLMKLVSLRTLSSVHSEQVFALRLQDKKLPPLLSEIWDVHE
The assay can be described thus: LXR agonists, Gal4 luciferase reporter, dose response, counter-screen for ssDAF-12 agonist project, cell-based, luminescence, HEK293, S. stercoralis campaign (AID 720737). To be noted: read-out: IC50 (the source's name). For orientation: A reporter such as luciferase makes a cellular process visible.

Assay [5] concerns the target Phosphorylase b kinase gamma catalytic chain, liver/testis isoform (Homo sapiens, UniProt P15735).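 Note: PHKG2 measured as one member of a kinome-wide kinase panel.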
Assay [6] has as its target Protein kinase C delta type (Homo sapiens, UniProt Q05655).
Assay [7] has as its target Proto-oncogene tyrosine-protein kinase ROS (Homo sapiens, UniProt P08922).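 Note: ROS1 tested as one member of a kinome-wide kinase panel.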
The target of assay [8] is Tyrosine-protein kinase Srms (Homo sapiens, UniProt Q9H3Y6).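 Note: SRMS measured as one member of a kinome-wide kinase profiling panel.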
Assay [9] concerns the target Serine/threonine-protein kinase BRSK1 (Homo sapiens, UniProt Q8TDC3).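 Note: measured within a kinome-wide kinase panel, with the target listed as KIAA1811.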

Sequence of Proto-oncogene tyrosine-protein kinase ROS (P08922 whole entry): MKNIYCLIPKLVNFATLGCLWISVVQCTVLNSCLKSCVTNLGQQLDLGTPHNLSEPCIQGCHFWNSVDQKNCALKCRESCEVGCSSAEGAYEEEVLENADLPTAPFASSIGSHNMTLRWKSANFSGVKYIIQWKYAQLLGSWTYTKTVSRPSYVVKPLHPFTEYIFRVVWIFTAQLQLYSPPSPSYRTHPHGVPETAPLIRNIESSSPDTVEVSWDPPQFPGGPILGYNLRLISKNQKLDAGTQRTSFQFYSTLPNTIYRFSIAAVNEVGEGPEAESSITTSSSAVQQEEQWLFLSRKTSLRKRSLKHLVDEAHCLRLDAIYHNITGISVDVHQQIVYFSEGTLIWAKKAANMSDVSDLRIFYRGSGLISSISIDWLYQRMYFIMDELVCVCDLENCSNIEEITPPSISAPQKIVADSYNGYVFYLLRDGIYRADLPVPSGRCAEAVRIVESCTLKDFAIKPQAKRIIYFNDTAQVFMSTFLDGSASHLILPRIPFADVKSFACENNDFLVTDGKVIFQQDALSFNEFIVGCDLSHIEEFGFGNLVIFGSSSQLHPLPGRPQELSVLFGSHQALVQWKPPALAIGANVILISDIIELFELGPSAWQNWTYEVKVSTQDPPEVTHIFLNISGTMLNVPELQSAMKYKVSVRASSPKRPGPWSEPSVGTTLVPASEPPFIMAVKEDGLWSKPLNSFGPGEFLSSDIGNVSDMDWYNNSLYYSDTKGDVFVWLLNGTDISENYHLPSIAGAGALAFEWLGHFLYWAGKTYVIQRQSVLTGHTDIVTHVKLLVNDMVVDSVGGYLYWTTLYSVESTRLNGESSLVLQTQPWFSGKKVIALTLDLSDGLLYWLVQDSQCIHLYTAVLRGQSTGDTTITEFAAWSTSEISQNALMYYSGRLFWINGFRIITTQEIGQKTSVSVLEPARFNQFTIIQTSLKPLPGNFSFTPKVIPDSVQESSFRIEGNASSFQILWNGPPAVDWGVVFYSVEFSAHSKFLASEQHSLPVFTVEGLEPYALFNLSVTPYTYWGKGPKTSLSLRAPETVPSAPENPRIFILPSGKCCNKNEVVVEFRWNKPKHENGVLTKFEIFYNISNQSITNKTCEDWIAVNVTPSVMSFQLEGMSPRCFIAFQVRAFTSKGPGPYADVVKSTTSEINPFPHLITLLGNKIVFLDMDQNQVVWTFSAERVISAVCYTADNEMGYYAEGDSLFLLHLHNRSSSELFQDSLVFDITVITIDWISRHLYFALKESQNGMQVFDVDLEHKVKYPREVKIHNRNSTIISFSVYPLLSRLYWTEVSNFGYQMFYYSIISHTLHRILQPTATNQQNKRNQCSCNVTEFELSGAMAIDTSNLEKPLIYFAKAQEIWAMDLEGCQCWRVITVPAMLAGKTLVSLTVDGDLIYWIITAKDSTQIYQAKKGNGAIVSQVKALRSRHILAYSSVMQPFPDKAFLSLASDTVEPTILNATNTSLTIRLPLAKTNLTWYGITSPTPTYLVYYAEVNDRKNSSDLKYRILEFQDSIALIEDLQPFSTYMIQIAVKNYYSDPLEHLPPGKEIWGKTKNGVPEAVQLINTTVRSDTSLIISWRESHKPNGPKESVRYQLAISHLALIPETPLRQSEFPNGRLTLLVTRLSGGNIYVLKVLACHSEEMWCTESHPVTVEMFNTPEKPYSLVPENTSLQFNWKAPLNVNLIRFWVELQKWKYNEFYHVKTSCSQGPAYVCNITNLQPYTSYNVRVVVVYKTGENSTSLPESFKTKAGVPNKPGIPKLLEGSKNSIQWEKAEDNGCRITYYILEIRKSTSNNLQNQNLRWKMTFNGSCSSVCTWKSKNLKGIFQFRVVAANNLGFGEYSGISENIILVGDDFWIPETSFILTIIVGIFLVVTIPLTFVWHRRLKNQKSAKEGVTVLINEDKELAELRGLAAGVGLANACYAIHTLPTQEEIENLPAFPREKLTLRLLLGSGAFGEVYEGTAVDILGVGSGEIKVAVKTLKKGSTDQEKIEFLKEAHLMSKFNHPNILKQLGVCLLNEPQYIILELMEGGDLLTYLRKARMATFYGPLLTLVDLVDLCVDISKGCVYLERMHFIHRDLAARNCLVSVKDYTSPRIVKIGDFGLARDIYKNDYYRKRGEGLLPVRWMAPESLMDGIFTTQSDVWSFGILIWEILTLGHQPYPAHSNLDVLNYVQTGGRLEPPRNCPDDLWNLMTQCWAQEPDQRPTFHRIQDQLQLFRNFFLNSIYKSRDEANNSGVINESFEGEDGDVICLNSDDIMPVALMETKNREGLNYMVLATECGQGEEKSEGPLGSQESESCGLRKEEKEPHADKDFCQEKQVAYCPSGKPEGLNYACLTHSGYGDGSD
Sequence of Serine/threonine-protein kinase BRSK1 (Q8TDC3 whole entry): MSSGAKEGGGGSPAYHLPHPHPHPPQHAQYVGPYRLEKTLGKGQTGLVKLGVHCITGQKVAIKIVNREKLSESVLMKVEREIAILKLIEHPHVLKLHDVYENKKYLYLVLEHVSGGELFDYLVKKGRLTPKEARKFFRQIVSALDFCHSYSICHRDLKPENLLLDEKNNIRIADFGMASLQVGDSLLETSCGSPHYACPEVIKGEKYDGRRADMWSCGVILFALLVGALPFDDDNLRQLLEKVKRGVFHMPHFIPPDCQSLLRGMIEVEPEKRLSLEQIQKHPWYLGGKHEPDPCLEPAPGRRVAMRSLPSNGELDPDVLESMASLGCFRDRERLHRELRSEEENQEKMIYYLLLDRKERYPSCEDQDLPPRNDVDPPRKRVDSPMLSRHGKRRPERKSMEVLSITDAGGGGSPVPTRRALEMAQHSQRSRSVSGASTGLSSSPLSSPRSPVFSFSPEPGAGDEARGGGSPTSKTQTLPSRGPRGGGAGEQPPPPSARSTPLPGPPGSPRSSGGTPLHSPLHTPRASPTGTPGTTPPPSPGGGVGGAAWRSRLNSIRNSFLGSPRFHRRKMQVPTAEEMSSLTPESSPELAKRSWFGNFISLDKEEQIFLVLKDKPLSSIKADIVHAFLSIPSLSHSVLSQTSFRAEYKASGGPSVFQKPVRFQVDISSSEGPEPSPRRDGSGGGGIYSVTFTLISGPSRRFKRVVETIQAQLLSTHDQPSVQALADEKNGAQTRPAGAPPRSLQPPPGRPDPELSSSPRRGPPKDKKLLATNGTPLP
Sequence of Phosphorylase b kinase gamma catalytic chain, liver/testis isoform (P15735 whole entry, canonical isoform): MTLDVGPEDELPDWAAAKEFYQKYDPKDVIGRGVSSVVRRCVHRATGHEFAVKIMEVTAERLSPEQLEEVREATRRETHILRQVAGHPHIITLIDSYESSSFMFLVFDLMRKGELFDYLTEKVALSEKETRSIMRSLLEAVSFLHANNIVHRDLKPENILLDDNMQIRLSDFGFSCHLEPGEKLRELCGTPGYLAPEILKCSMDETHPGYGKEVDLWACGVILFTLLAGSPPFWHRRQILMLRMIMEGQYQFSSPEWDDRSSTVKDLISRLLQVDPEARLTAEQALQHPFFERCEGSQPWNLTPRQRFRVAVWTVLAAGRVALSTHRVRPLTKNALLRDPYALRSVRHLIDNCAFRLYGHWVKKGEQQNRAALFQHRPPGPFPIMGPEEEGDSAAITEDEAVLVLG
Sequence of Tyrosine-protein kinase Srms (Q9H3Y6 whole entry): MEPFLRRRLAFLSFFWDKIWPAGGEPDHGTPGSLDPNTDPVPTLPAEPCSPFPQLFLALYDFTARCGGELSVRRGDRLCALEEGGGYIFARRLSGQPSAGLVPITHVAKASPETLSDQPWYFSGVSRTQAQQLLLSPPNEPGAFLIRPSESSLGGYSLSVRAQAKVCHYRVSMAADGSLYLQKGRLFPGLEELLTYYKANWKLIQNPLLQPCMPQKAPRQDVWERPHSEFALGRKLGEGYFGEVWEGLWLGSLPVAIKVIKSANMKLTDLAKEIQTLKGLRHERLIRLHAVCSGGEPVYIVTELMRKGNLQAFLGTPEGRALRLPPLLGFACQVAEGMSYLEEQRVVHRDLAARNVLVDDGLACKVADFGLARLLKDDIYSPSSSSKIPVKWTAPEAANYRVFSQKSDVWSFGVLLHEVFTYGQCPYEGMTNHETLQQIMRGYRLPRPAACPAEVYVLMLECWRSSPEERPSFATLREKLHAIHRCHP
Sequence of Protein kinase C delta type (Q05655 whole entry): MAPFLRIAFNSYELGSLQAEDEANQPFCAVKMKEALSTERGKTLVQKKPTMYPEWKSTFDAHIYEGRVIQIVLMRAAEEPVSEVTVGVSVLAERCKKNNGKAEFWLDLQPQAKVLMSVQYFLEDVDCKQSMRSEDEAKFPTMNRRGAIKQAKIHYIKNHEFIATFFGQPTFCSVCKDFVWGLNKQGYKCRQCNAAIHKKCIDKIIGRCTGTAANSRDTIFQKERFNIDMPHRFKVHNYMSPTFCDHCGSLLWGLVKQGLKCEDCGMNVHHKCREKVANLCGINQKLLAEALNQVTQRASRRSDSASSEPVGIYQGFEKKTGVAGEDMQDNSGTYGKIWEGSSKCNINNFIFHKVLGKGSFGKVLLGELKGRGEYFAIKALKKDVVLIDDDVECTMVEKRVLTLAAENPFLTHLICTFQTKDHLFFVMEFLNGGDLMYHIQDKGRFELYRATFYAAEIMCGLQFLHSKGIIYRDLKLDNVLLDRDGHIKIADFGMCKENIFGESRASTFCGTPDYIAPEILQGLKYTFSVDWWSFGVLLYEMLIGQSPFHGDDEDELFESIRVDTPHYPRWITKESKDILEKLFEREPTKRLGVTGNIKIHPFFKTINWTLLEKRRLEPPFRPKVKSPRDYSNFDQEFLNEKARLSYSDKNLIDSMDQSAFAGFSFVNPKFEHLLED

Regarding `O=C1C(Cl)=C(NCc2cccnc2)C(=O)c2ccccc21`, the EC50 in [1] is 9.25 µM (active).
With `CN(C)c1ncc(C2=C(Cl)C(=O)C(N3CCCC3)=C(Cl)C2=O)s1`, the EC50 in [2] is listed as > 79.4 µM (not active).
With `Cc1cnc(NC(=O)c2sc3ccccc3c2Cl)s1`, in [3], the 50% inhibitory concentration (IC50) (in general, the concentration that gives 50% inhibition) is 3.95 µM (active). Also, the EC50 in assay [4] was > 67.5 µM (inactive).
Consider `O=C1NC(=S)SC1=C1C(=O)Nc2ccc(Br)cc21`, for which the Ki (usually a dissociation constant, usually derived from enzyme kinetics or from competition with a known ligand) is > 5.01 µM (inactive) in assay [5]; > 7.94 µM (inactive) in [6]; > 2 µM (inactive) in [7]; > 1.58 µM (inactive) in assay [8]; > 10 µM (inactive) in assay [9].
